The record followed here is ChEMBL document CHEMBL1201862, “PubChem BioAssay data set” (2004).

What is called GI50 is the concentration giving 50% growth inhibition.

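Grown in 96-well plates, cells were treated for 48 hours with each compound at five concentrations. Insufficient inhibition: endpoint recorded as highest concentration tested. At the GI50, growth is halved.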 Active and inactive are the calls of the source. Cut-off read from the data, not from the text of the source: active = GI50 up to about 1.1 µM and inactive = higher.

Some test systems named below: UO-31; T47D; MDA-N; KM12; HOP-92; U-251; A549; PC-3; MCF7; ACHN; COLO 205; OVCAR-5; Hs-578T; SNB-19; MOLT-4; EKVX; NCI-H522; HCT-116; RPMI-8226; UACC-257.
Assay in all cases: DTP human tumour cell line panel, 48 h

For the compound `C[C@H]1C2Cc3cc(N)ccc3[C@@]1(C)CCN2CCc1ccccc1`, the GI50 in the assay on UO-31 is 52 µM (inactive); in the assay on T47D, 31.6 µM (inactive); with MDA-N it was 66.2 µM (inactive); in the assay on KM12, 37.5 µM (inactive); with HOP-92, 21.4 µM (inactive); in the assay with U-251 it was 43.8 µM (inactive). The GI50 was 42.7 µM (inactive) in the assay on A549; 22.6 µM (inactive) in the assay with PC-3; 25.2 µM (inactive) in the assay with MCF7; 41.2 µM (inactive) in the assay with ACHN; 16.8 µM (inactive) with COLO 205; 74.6 µM (inactive) with OVCAR-5. The GI50 was 96.6 µM (inactive) in the assay with Hs-578T; > 100 µM (inactive) with SNB-19; 20.4 µM (inactive) in the assay on MOLT-4; 40.6 µM (inactive) in the assay on EKVX; 13.2 µM (inactive) with NCI-H522; 41.8 µM (inactive) in the assay with HCT-116. For the same compound, the GI50 is 33.6 µM (inactive) in the assay on RPMI-8226 and 30.7 µM (inactive) in the assay with UACC-257.

As to `Nc1nc(N)c(CCCCc2ccc([N+](=O)[O-])cc2)c(N)n1`, the GI50 with UO-31 is > 100 µM (inactive); in the assay on T47D it was > 100 µM (inactive); with MDA-N, > 100 µM (inactive); with KM12 it was 36.3 µM (inactive); in the assay on HOP-92 it was 99.5 µM (inactive); with U-251, 10.6 µM (inactive). Further, the GI50 is 7.29 µM (inactive) with A549; 7.71 µM (inactive) in the assay with PC-3; > 100 µM (inactive) in the assay with MCF7; 27.9 µM (inactive) in the assay on ACHN; > 94 µM (inactive) in the assay on COLO 205; 78.7 µM (inactive) in the assay with OVCAR-5. Also, the GI50 in the assay on Hs-578T was > 100 µM (inactive); with SNB-19, > 100 µM (inactive); in the assay on MOLT-4, 8.22 µM (inactive); in the assay on EKVX, > 100 µM (inactive); in the assay on NCI-H522, > 83.6 µM (inactive); in the assay with HCT-116, 3.93 µM (inactive). For the same compound, the GI50 in the assay on RPMI-8226 was > 25.9 µM (inactive); with UACC-257, > 96.2 µM (inactive).

On to `CN/C(=N\N)NS(=O)(=O)c1cc(C)c(Cl)cc1S`, for which the GI50 in the assay with UO-31 is 25.1 µM (inactive); in the assay with T47D, 24.4 µM (inactive); with MDA-N, > 100 µM (inactive); in the assay with KM12, 76 µM (inactive); with HOP-92, 75.2 µM (inactive); in the assay with U-251 it was 64.1 µM (inactive). Further, the GI50 is 29.9 µM (inactive) with A549; > 100 µM (inactive) with PC-3; 62.4 µM (inactive) in the assay with MCF7; > 100 µM (inactive) in the assay on COLO 205; 93.5 µM (inactive) in the assay with OVCAR-5; 20.6 µM (inactive) with Hs-578T. Moreover, the GI50 in the assay with SNB-19 is > 100 µM (inactive); in the assay on MOLT-4, > 10 µM (inactive); in the assay on EKVX, 81.7 µM (inactive); with NCI-H522, 25.2 µM (inactive); with HCT-116, 66.5 µM (inactive); with RPMI-8226, 74 µM (inactive). Besides, the GI50 with UACC-257 is > 100 µM (inactive).

With `CCOC(=O)/C=C(/C(=O)OCC)n1cc(C)c(=O)n(/C(=C/C(=O)OCC)C(=O)OCC)c1=O`, the GI50 with UO-31 is 5.31 µM (inactive); in the assay with T47D, 2.64 µM (inactive); with MDA-N, 3.78 µM (inactive); in the assay on KM12 it was 13.9 µM (inactive); in the assay on HOP-92 it was 1.52 µM (inactive); in the assay on U-251, 6.93 µM (inactive). In addition, the GI50 was 15.9 µM (inactive) with A549; 5.22 µM (inactive) with PC-3; 1.91 µM (inactive) in the assay with MCF7; 1.89 µM (inactive) in the assay on ACHN; 1.32 µM (inactive) in the assay on COLO 205; 6.62 µM (inactive) with OVCAR-5. The GI50 in the assay on Hs-578T was 6.4 µM (inactive); with SNB-19 it was 19.8 µM (inactive); in the assay on MOLT-4, 1.32 µM (inactive); in the assay with EKVX, 3.06 µM (inactive); in the assay on NCI-H522, 0.49 µM (active); in the assay with HCT-116, 1.91 µM (inactive). Besides, the figures for the GI50 with RPMI-8226 and in the assay on UACC-257 were 1.88 µM (inactive) and 4.9 µM (inactive), respectively.

On to `Cc1ccnc2c1C(=O)C1=C(OC(C)(C)CC1O)C2=O` (stereo not drawn), for which the GI50 in the assay with UO-31 was 2.2 µM (inactive); with T47D it was 4.89 µM (inactive); with MDA-N, 1.45 µM (inactive); with KM12, 3.27 µM (inactive); with HOP-92, 10.1 µM (inactive); with U-251, 3.34 µM (inactive). The GI50 with A549 is 8.77 µM (inactive); in the assay with PC-3 it was 2.91 µM (inactive); in the assay on MCF7 it was 2.56 µM (inactive); in the assay with ACHN it was 5.82 µM (inactive); in the assay with COLO 205, 2.41 µM (inactive); in the assay with OVCAR-5, 8.26 µM (inactive). Also, the GI50 is 2.81 µM (inactive) with Hs-578T; 7.38 µM (inactive) in the assay on SNB-19; 3.9 µM (inactive) with MOLT-4; 5.21 µM (inactive) with EKVX; 2.9 µM (inactive) with NCI-H522; 2.82 µM (inactive) in the assay with HCT-116. In addition, the GI50 with RPMI-8226 was 4.06 µM (inactive); in the assay on UACC-257 it was 1.74 µM (inactive).

For the compound `CC1=C(C(=O)OCCO[N+](=O)[O-])C(c2cccc([N+](=O)[O-])c2)C(C(=O)OC(C)C)=C(C)N1` (stereo not drawn), the GI50 is 12.6 µM (inactive) with UO-31; 15.6 µM (inactive) in the assay on T47D; 14.9 µM (inactive) in the assay on MDA-N; 11 µM (inactive) in the assay with KM12; 11 µM (inactive) with HOP-92; 14.9 µM (inactive) in the assay with U-251. Moreover, the GI50 was 12.9 µM (inactive) in the assay with A549; 4.25 µM (inactive) in the assay with PC-3; 19.6 µM (inactive) in the assay on MCF7; 14.2 µM (inactive) in the assay on ACHN; 10.7 µM (inactive) with COLO 205; 14.9 µM (inactive) in the assay on OVCAR-5. For the same compound, the GI50 is 7.71 µM (inactive) in the assay with Hs-578T; 19.2 µM (inactive) in the assay on SNB-19; 3.23 µM (inactive) with MOLT-4; 16.8 µM (inactive) with EKVX; 17.8 µM (inactive) with NCI-H522; 10.5 µM (inactive) in the assay on HCT-116. Also, the GI50 was 2.58 µM (inactive) in the assay on RPMI-8226 and 12.3 µM (inactive) with UACC-257.

In the case of `C=CCc1c(C)nc(C)nc1N/N=C/C=C/c1ccccc1`, the GI50 in the assay on UO-31 was 39.7 µM (inactive); with T47D it was 3.73 µM (inactive); in the assay with MDA-N it was 29.2 µM (inactive); in the assay on HOP-92, 40.5 µM (inactive); in the assay on U-251 it was 23.6 µM (inactive); in the assay on A549, 37.4 µM (inactive). Moreover, the GI50 in the assay with PC-3 is 34.9 µM (inactive); in the assay on MCF7, 23.6 µM (inactive); in the assay with ACHN, > 100 µM (inactive); in the assay with COLO 205 it was 24.8 µM (inactive); in the assay with OVCAR-5 it was 99.5 µM (inactive); in the assay with Hs-578T it was 48.9 µM (inactive). In addition, the GI50 in the assay on SNB-19 is 31.8 µM (inactive); with MOLT-4 it was 22.4 µM (inactive); in the assay with EKVX, 17.6 µM (inactive); with NCI-H522, 28.2 µM (inactive); in the assay with HCT-116 it was 36.1 µM (inactive); with RPMI-8226, 21.9 µM (inactive). For the same compound, the GI50 in the assay on UACC-257 is 14.4 µM (inactive).

Turning to `Oc1ccccc1/C=N/c1ccc(-c2nc3ccccc3[nH]2)cc1`, the GI50 with UO-31 is 63.1 µM (inactive); in the assay with T47D, 10.4 µM (inactive); with MDA-N it was 54.7 µM (inactive); in the assay with KM12, 43.3 µM (inactive); in the assay on HOP-92, 22.9 µM (inactive); in the assay on U-251, 49.9 µM (inactive). Also, the GI50 in the assay on A549 is > 100 µM (inactive); with PC-3, 50.5 µM (inactive); with MCF7, 20.7 µM (inactive); with ACHN, > 100 µM (inactive); with COLO 205, 47.2 µM (inactive); in the assay on OVCAR-5 it was > 100 µM (inactive). Moreover, the GI50 with Hs-578T was > 100 µM (inactive); in the assay on SNB-19, > 100 µM (inactive); in the assay with MOLT-4 it was 21.3 µM (inactive); in the assay on EKVX, > 100 µM (inactive); in the assay on NCI-H522 it was 63.5 µM (inactive); in the assay on HCT-116, 53.6 µM (inactive). For the same compound, the GI50 with RPMI-8226 was 26.6 µM (inactive); in the assay with UACC-257, 47.8 µM (inactive).

`CC[C@@]1(O)C(=O)OCc2c1cc1n(c2=O)Cc2c-1nc1ccccc1c2/C=N/NC(=O)C[N+](C)(C)C`: the concentration for 50% growth inhibition (GI50) in the assay with UO-31 was 0.944 µM (active); in the assay on T47D, 0.239 µM (active); in the assay with MDA-N it was 9.62 µM (inactive); with KM12 it was > 53.8 µM (inactive); in the assay with HOP-92, 3.68 µM (inactive); in the assay on U-251 it was 1.11 µM (active). For the same compound, the GI50 with A549 is 1.22 µM (inactive); in the assay with PC-3, 9.59 µM (inactive); in the assay with MCF7 it was 0.192 µM (active); with ACHN it was 0.277 µM (active); in the assay on COLO 205 it was 62.4 µM (inactive); in the assay on OVCAR-5 it was 30.4 µM (inactive). Further, the GI50 in the assay on Hs-578T was > 100 µM (inactive); in the assay with SNB-19, 0.75 µM (active); in the assay with MOLT-4 it was 0.207 µM (active); in the assay on EKVX it was 47.9 µM (inactive); in the assay with NCI-H522, 2.26 µM (inactive); in the assay with HCT-116, 2.3 µM (inactive). For the same compound, the GI50 in the assay with RPMI-8226 is 4.93 µM (inactive); in the assay with UACC-257, 12.7 µM (inactive).

For `C=CC(C)(C)NC(C(=O)N1CCC[C@H]1c1nc(-c2nc(C(=O)OCC=C(C)C)c(C)o2)c(C)o1)C(C)C` (stereo partly drawn), the GI50 was 21.8 µM (inactive) in the assay on UO-31; 74.8 µM (inactive) in the assay with T47D; 23.9 µM (inactive) in the assay on MDA-N; > 54.2 µM (inactive) in the assay with KM12; 23.3 µM (inactive) with HOP-92; > 48.2 µM (inactive) in the assay with U-251. The GI50 in the assay with A549 was > 58.9 µM (inactive); in the assay on PC-3, > 64 µM (inactive); with MCF7 it was > 53.8 µM (inactive); with ACHN it was > 45.9 µM (inactive); in the assay on COLO 205 it was 34 µM (inactive); in the assay on OVCAR-5, > 76 µM (inactive). Also, the GI50 is 81.5 µM (inactive) with Hs-578T; > 48.6 µM (inactive) in the assay with SNB-19; 47.5 µM (inactive) in the assay with MOLT-4; > 52 µM (inactive) in the assay with EKVX; > 100 µM (inactive) in the assay with NCI-H522; > 60.7 µM (inactive) with HCT-116. Further, the GI50 with RPMI-8226 is > 100 µM (inactive); in the assay on UACC-257, > 58.7 µM (inactive).
